Measured values as given in patent US10220029B2, “Pharmaceutical composition comprising glutarimide derivatives and use thereof in the treatment of eosinophilic diseases” (OBSCHESTVO S ORGANICHENNOI OTVETSTVENNOSTIYU …, priority 2013, dated 2019).
Marks after values point to notes of the source that are not given here.

Columns and labels:
[1] = system: model of sephadex-induced eosinophilic lung inflammation in rats; experiment: Content of cell elements in BAL in the model of sephadex-induced eosinophilic lung inflammation in rats; assay type: in vivo, male Wistar rats; details: Table 9, four times, BAL 48 hours after sephadex, n = 7
Procedure: The model of sephadex-induced eosinophilic lung inflammation in rats was realized by a standard method [Evaldsson C, Rydén I, Uppugunduri S. Isomaltitol exacerbates neutrophilia but reduces eosinophilia: new insights into the sephadex model of lung inflammation//Int Arch Allergy Immunol. 2011; 154(4):286-94]. Sephadex G-200 (Pharmacia, Sweden) was administered one time by inhalation to male Wistar rats at a dose of 5 mg/kg. The studied compounds were administered to the animals by the intragastric route four times: 24 hours and 1 hour before and 24 hours and 45 hours after administration of sephadex. The reference preparation, budesonide, was administered according to the same scheme, by inhalation at a dose of 0.5 mg/kg. Bronchoalveolar lavage was taken 48 hours after the inhalation of sephadex, and the total lymphocyte count and leukocyte formula in the lavage were determined. The number of rats in a group was 7 to 10.

[2] = system: model of bronchial asthma in guinea pigs; experiment: Content of cell elements in BAL in the model of bronchial asthma in guinea pigs; assay type: in vivo, guinea pig; details: Table 4; 14 mg/kg, 10 times of administration; n = 9
Procedure: Bronchial asthma in guinea pigs was induced by a standard method [Ricciardolo F L, Nijkamp F, De Rose V, Folkerts G. The guinea pig as an animal model for asthma// Current Drug Targets. 2008 June; 9(6):452-65]. The animals were immunized by one parenteral administration of 0.5 mL of a solution comprising 100 μg/mL ovalbumin (Sigma) and 100 mg/mL aluminium hydroxide. Intact animals received a physiological saline solution in an amount of 0.5 mL.
On days 29, 30 and 31, hyperactivity of the respiratory airways was provoked by inhalation administration of ovalbumin in ascending concentrations of 0.1, 0.3, and 0.5 mg/mL on days 1, 2, and 3 of the provocation, respectively. The inhalation lasted 5 minutes or until asphyxia symptoms became apparent (fall to one side). On day 32, the animals received a challenging dose of ovalbumin (1 mg/mL) for 5 minutes, while assessing a bronchospastic reaction.
The studied compounds were administered to the animals once daily every day for 6 or 10 days; the administration was terminated two days before the administration of the challenging dose of antigen.
The bronchoalveolar lavage (BAL) and cardiac cavity blood were derived from the animals 24 hours after administration of the challenging dose. The BAL was collected under anesthesia by lavaging the lungs with 5 mL of a physiological saline solution heated to 37° C. through the trachea, using a syringe dosing device.
The absolute number of cell elements in 1 μL of the lavage (cytosis) was counted in the bronchoalveolar lavage, using the Goryaev camera. Then, the BAL was centrifuged at 200 g for 10 minutes. The residue was used to prepare swabs that were fixed in methanol and stained according to Romanovsky-Giemsa to count endopulmonary cytogram.
The study comprised 3 experiments, wherein the first one was directed to the evaluation of the effect of claimed compounds 1-6 on the cell composition of the BAL, the second and the third experiments were aimed at evaluating the effect of compounds 1 and 2 on the cell composition of the BAL, the cell composition of the blood, and on the bronchospasm severity.

Row | SMILES | Eosinophils, content of cell elements in 1 μL of BAL ([1]; 1.8 mg/kg intragastric) | Leukocytes, content of cell elements in 1 μL of BAL ([1]; 1.8 mg/kg intragastric) | Lymphocytes, content of cell elements in 1 μL of BAL ([1]; 1.8 mg/kg intragastric) | Macrophages, content of cell elements in 1 μL of BAL ([1]; 1.8 mg/kg intragastric) | Neutrophils, content of cell elements in 1 μL of BAL ([1]; 1.8 mg/kg intragastric) | Eosinophils, content of cell elements in 1 μL of BAL ([1]; 18 mg/kg intragastric) | Leukocytes, content of cell elements in 1 μL of BAL ([1]; 18 mg/kg intragastric) | Lymphocytes, content of cell elements in 1 μL of BAL ([1]; 18 mg/kg intragastric) | Macrophages, content of cell elements in 1 μL of BAL ([1]; 18 mg/kg intragastric) | Neutrophils, content of cell elements in 1 μL of BAL ([1]; 18 mg/kg intragastric) | Eosinophils in BAL [2] | Lymphocytes in BAL [2] | Monocytes in BAL [2] | Neutrophils in BAL [2]
1 | Cl.O=C1CCCC(=O)N1CCC1CCCN1 (stereo not shown) [Compound 7] | 28 ± 16& in 1 μL of BAL | 2242 ± 289& in 1 μL of BAL | 16 ± 10 in 1 μL of BAL | 913 ± 235& in 1 μL of BAL | 389 ± 188 in 1 μL of BAL | 164 ± 62 & in 1 μL of BAL | 1725 ± 345& in 1 μL of BAL | 29 ± 17 in 1 μL of BAL | 909 ± 299& in 1 μL of BAL | 136 ± 50& in 1 μL of BAL | – | – | – | –
2 | O=C1CCCC(=O)N1CCc1nc2ccccc2s1 [Compound 4, 1-(2-(1,3-benzothiazol-2-yl)ethyl)piperidine-2,6-dione] | – | – | – | – | – | – | – | – | – | – | 1.25 ± 0.34*& 10^9/L | 0.81 ± 0.11* 10^9/L | 0.85 ± 0.19& 10^9/L | 0.43 ± 0.12 10^9/L
3 | CC1CC(=O)N(CCc2cnc[nH]2)C(=O)C1 [Compound 8] | 202 ± 53*& in 1 μL of BAL | 2796 ± 333 & in 1 μL of BAL | 82 ± 44 in 1 μL of BAL | 1860 ± 204& in 1 μL of BAL | 303 ± 104& in 1 μL of BAL | 318 ± 65*& in 1 μL of BAL | 4250 ± 576 in 1 μL of BAL | 64 ± 45 in 1 μL of BAL | 2050 ± 462& in 1 μL of BAL | 583 ± 180 in 1 μL of BAL | – | – | – | –
4 | CC1(C)CC(=O)N(CCc2cnc[nH]2)C(=O)C1 [Compound 3] | – | – | – | – | – | – | – | – | – | – | 0.93 ± 0.31*& 10^9/L | 0.72 ± 0.08* 10^9/L | 0.71 ± 0.18& 10^9/L | 0.36 ± 0.08 10^9/L
